From patent US20240383904A1, “HETEROCYCLIC COMPOUNDS” (Hoffmann-La Roche Inc., priority 2021, published 2024)

Target: T1, MAGL (Homo sapiens, UniProt Q99685)
T1 sequence (Q99685 1-303): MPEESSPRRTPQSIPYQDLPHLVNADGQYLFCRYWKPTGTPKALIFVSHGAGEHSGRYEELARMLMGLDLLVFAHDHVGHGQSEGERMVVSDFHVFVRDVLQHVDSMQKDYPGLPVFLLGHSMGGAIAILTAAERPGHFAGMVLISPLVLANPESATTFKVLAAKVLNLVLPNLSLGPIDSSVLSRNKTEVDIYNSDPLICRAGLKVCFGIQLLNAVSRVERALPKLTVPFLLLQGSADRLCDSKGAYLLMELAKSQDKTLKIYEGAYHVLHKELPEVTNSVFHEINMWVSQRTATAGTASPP
Experiment: 2-AG assay: MAGL inhibitory activity by hydrolysis of 2-arachidonoylglycerol to arachidonic acid, followed by mass spectrometry
Type: biochemical
Conditions: 15 min preincubation, 30 min reaction at RT, 8 μM 2-arachidonoylglycerol

SMILES	IC50 [nM]
O=C1COCC2(CN(C(=O)N3CC4(CC(NS(=O)(=O)c5cccc(C(F)(F)F)c5)C4)C3)C2)N1 [Example 208, N-[2-(6-oxo-8-oxa-2,5-diazaspiro[3.5]nonane-2-carbonyl)-2-azaspiro[3.3]heptan-6-yl]-3-(trifluoromethyl)benzene-sulfonamide]	67.1
O=C1COCC2(CN(C(=O)N3CC4(CCC(Cc5ccc(C(F)(F)F)cn5)CC4)C3)C2)N1 [Example 87, 2-[7-[[5-(trifluoromethyl)-2-pyridyl]methyl]-2-azaspiro[3.5]nonane-2-carbonyl]-8-oxa-2,5-diazaspiro[3.5]nonan-6-one]	6.42
O=C1CCC2(CN(C(=O)N3CC4(CC(Oc5cncc(C(F)(F)F)c5)C4)C3)C2)N1 [Example 299, 2-[6-[[5-(trifluoromethyl)-3-pyridyl]oxy]-2-azaspiro[3.3]heptane-2-carbonyl]-2,5-diazaspiro[3.4]octan-6-one]	63.5
O=C1COCC2(CN(C(=O)N3CC4(C3)CN(S(=O)(=O)c3cccc(OC(F)(F)F)c3)C4)C2)N1 [Example 86, 2-[2-[3-(trifluoromethoxy)phenyl]sulfony1-2,6-diazaspiro[3.3]heptane-6-carbonyl]-8-oxa-2,5-diazaspiro[3.5]nonan-6-one]	984
O=C1CCC2(CN(C(=O)N3CC4(CC(Oc5ncc(F)cc5Cl)C4)C3)C2)N1 [Example 313, 2-[6-[(3-chloro-5-fluoro-2-pyridyl)oxy]-2-azaspiro[3.3]heptane-2-carbonyl]-2,5-diazaspiro[3.4]octan-6-one]	27.8
O=C1NC2(CO1)CN(C(=O)N1CC3(CC(c4cnc(C(F)(F)F)cn4)C3)C1)C2 [Example 63, 2-[6-[5-(trifluoromethyl)pyrazin-2-yl]-2-azaspiro[3.3]heptane-2-carbonyl]-7-oxa-2,5-diazaspiro[3.4]octan-6-one]	1.28
O=C1CCC2(CN(C(=O)N3CC4(CCN(Cc5ncc(C(F)F)s5)CC4)C3)C2)N1 [Example 348, 2-[7-[[5-(difluoromethyl)thiazol-2-yl]methyl]-2,7-diazaspiro[3.5]nonane-2-carbonyl]-2,5-diazaspiro[3.4]octan-6-one]	90.9
O=C1CCC2(CN(C(=O)N3CC4(CC(Cc5cc(C(F)(F)F)ncn5)C4)C3)C2)N1 [Example 312, 2-[6-[[6-(trifluoromethyl)pyrimi-din-4-yl]methyl]-2-azaspiro[3.3]heptane-2-carbonyl]-2,5-diazaspiro[3.4]octan-6-one]	54.9
CS(=O)(=O)c1cc(F)ccc1OC1CCC2(CC1)CN(C(=O)N1CC3(COC(=O)N3)C1)C2 [Example 99, 2-[7-(4-fluoro-2-mesyl-phenoxy)-2-azaspiro[3.5]nonane-2-carbonyl]-7-oxa-2,5-diazaspiro[3.4]octan-6-one]	3.09
CS(=O)(=O)c1ccc(CC2CC3(C2)CN(C(=O)N2CC4(CCC(=O)N4)C2)C3)cc1C(F)(F)F [Example 39, 2-[6-[4-mesy1-3-(trifluoromethyl)benzyl]-2-azaspiro[3.3]heptane-2-carbonyl]-2,5-diazaspiro[3.4]octan-6-one]	2.38
Cn1ncc(C(F)(F)F)c1CC1CC2(C1)CN(C(=O)N1CC3(COCC(=O)N3)C1)C2 [Example 366, 2-[6-[[2-methyl-4-(trifluoromethyl)pyrazol-3-yl]methyl]-2-azaspiro[3.3]heptane-2-carbonyl]-8-oxa-2,5-diazaspiro[3.5]nonan-6-one]	22.4
O=C1CCC2(CN(C(=O)N3CC4(CC(Oc5ccc(F)cn5)C4)C3)C2)N1 [Example 309, 2-[6-[(5-fluoro-2-pyridyl)oxy]-2-azaspiro[3.3]heptane-2-carbonyl]-2,5-diazaspiro[3.4]octan-6-one]	94.9
O=C1NC2(CO1)CN(C(=O)N1CC3(CCC(Nc4cnc(C(F)(F)F)cn4)CC3)C1)C2 [Example 98, 2-[7-[[5-(trifluoromethyl)pyrazin-2-yl]amino]-2-azaspiro[3.5]nonane-2-carbonyl]-7-oxa-2,5-diazaspiro[3.4]octan-6-one]	1.75
O=C1NC2(CCO1)CN(C(=O)N1CC3(CCN(S(=O)(=O)c4ccc(C(F)(F)F)cc4F)CC3)C1)C2 [Example 144, 2-[7-[2-fluoro-4-(trifluoromethyl)phenyl]sulfonyl-2,7-diazaspiro[3.5]nonane-2-carbonyl]-7-oxa-2,5-diazaspiro[3.5]nonan-6-one]	2120
N=S(=O)(c1cc(F)cc(CC2CC3(C2)CN(C(=O)N2CC4(COCC(=O)N4)C2)C3)c1)C(F)(F)F (stereo not shown) [Example 322, 2-[6-[[3-fluoro-5-(trifluoromethylsulfoni-midoyl)phenyl]methyl]-2-azaspiro[3.3]heptane-2-carbonyl]-8-oxa-2,5-diazaspiro[3.5]nonan-6-one]	4.32
O=C1CCC2(CN(C(=O)N3CC4(CC(Cn5cc(C6(C(F)(F)F)CC6)cn5)C4)C3)C2)N1 [Example 311, 2-[6-[[4-[1-(trifluoromethyl)cyclopro-pyl]pyrazol-1-yl]methyl]-2-azaspiro[3.3]heptane-2-carbonyl]-2,5-diazaspiro[3.4]octan-6-one]	4.08
O=C1NC2(CO1)CN(C(=O)N1CC3(CC(c4cnc(C(F)(F)F)nc4)C3)C1)C2 [Example 78, 2-[6-[2-(trifluoromethyl)pyrimi-din-5-yl]-2-azaspiro[3.3]heptane-2-carbonyl]-7-oxa-2,5-diazaspiro[3.4]octan-6-one]	2.3
O=C1NC2(CO1)CN(C(=O)N1CC3(CC(C(=O)NC4(C(F)(F)F)CC4)C3)C1)C2 [Example 67, 2-(6-keto-7-oxa-2,5-diazaspiro[3.4]octane-carbonyl)-N-[1-(trifluoromethyl)cyclopro-pyl]-2-azaspiro[3.3]heptane-6-carboxamide]	88.6

The remaining molecules from weak to strong by IC50, led by results:

IC50 [nM]	SMILES
928	O=C1COCC2(CN(C(=O)N3CC4(CCN(Cc5ccc(C(F)(F)F)cn5)C4)C3)C2)N1 [Example 241, 2-[7-[[5-(trifluoromethyl)-2-pyridyl]methyl]-2,7-diazaspiro[3.4]octane-2-carbonyl]-8-oxa-2,5-diazaspiro[3.5]nonan-6-one]
287	O=C1CCC2(CN(C(=O)N3CC4(CN(Cc5nc(C(F)(F)F)cs5)C4)C3)C2)N1 [Example 306, 2-[6-[[4-(trifluoromethyl)thiazol-2-yl]methyl]-2,6-diazaspiro[3.3]heptane-2-carbonyl]-2,5-diazaspiro[3.4]octan-6-one]
78.9	O=C1COCC2(CN(C(=O)N3CC4(CC(OCC5(C(F)(F)F)CC5)C4)C3)C2)N1 [Example 140, 2-[6-[[1-(trifluoromethyl)cyclopro-pyl]methoxy]-2-azaspiro[3.3]heptane-2-carbonyl]-8-oxa-2,5-diazaspiro[3.5]nonan-6-one]
51	O=C1COCC2(CN(C(=O)N3CC4(CC(Cc5cnc(C(F)(F)F)cn5)C4)C3)C2)N1 [Example 138, 2-[6-[[5-(trifluoromethyl)pyrazin-2-yl]methyl]-2-azaspiro[3.3]heptane-2-carbonyl]-8-oxa-2,5-diazaspiro[3.5]nonan-6-one]
8.33	O=C1NC2(CO1)CN(C(=O)N1CC3(CC(Oc4ccc(C(F)(F)F)nn4)C3)C1)C2 [Example 76, 2-[6-[6-(trifluoromethyl)pyrida-zin-3-yl]oxy-2-azaspiro[3.3]heptane-2-carbonyl]-7-oxa-2,5-diazaspiro[3.4]octan-6-one]
6.17	Cn1nc(C(F)(F)F)cc1CC1CC2(C1)CN(C(=O)N1CC3(CCC(=O)N3)C1)C2 [Example 246, 2-[6-[[2-methyl-5-(trifluoromethyl)pyrazol-3-yl]methyl]-2-azaspiro[3.3]heptane-2-carbonyl]-2,5-diazaspiro[3.4]octan-6-one]
2.01	O=C1COCC2(CN(C(=O)N3CC4(CC(Cc5ccc(OC(F)(F)F)cn5)C4)C3)C2)N1 [Example 177, 2-[6-[[5-(trifluoromethoxy)-2-pyridyl]methyl]-2-azaspiro[3.3]heptane-2-carbonyl]-8-oxa-2,5-diazaspiro[3.5]nonan-6-one]
1.06	O=C1CCC2(CN(C(=O)N3CC4(CC(Cc5ccc(S(=O)(=O)C(F)(F)F)cn5)C4)C3)C2)N1 [Example 262, 2-[6-[[5-(trifluoromethylsulfonyl)-2-pyridyl]methyl]-2-azaspiro[3.3]heptane-2-carbonyl]-2,5-diazaspiro[3.4]octan-6-one]
0.94	NC(=O)c1ccc(CC2CC3(C2)CN(C(=O)N2CC4(COC(=O)N4)C2)C3)cc1OC(F)(F)F [Example 244, 4-[[2-(6-oxo-7-oxa-2,5-diazaspiro[3.4]octane-2-carbonyl)-2-azaspiro[3.3]heptan-6-yl]methyl]-2-(trifluoromethoxy)benz-amide]
0.83	N=S(=O)(c1cc(F)cc(CC2CC3(C2)CN(C(=O)N2CC4(CCC(=O)N4)C2)C3)c1)C(F)(F)F (stereo not shown) [Example 298, 2-[6-[[3-fluoro-5-(trifluoromethylsulfoni-midoyl)phenyl]methyl]-2-azaspiro[3.3]heptane-2-carbonyl]-2,5-diazaspiro[3.4]octan-6-one]
0.79	O=C1CCC2(CN(C(=O)N3CC4(CCN(Cc5ccc(C(F)(F)F)cc5F)CC4)C3)C2)N1 [Example 132]
0.2	O=C1CCC2(CN(C(=O)N3CC4(CC(Cc5cccc(S(=O)(=O)C(F)(F)F)c5)C4)C3)C2)N1 [Example 360, 2-[6-(3-triflylbenzyl)-2-azaspiro[3.3]heptane-2-carbonyl]-2,5-diazaspiro[3.4]octan-6-one]
0.17	O=C1CCC2(CN(C(=O)N3CC4(CCC(Cc5nnc(C(F)(F)F)[nH]5)CC4)C3)C2)N1 [Example 323, 2-[7-[[5-(trifluoromethyl)-4H-1,2,4-triazol-3-yl]methyl]-2-azaspiro[3.5]nonane-2-carbonyl]-2,5-diazaspiro[3.4]octan-6-one]
